According to patent US20250382298A1, “NITROGEN-CONTAINING COMPOUND AND USE THEREOF” (SUZHOU GENHOUSE BIO CO., LTD., priority 2022, published 2025):

What was measured:
hERG potassium channel = hERG potassium channel (Homo sapiens (Human), UniProt Q12809); assay: hERG whole-cell patch clamp (Qpatch) in HEK293 cells; format: cell-based; conditions: top concentration 30 μM
Experimental: HEK293 cells were cultured in a DMEM medium containing 10% fetal bovine serum and 0.8 mg/mL G418 at 37° C. with 5% CO2. The cells were digested by TrypLE™ Express and then centrifuged. The cell density was adjusted to 2×10^6 cells/ml. The cells were then gently mixed for 15-20 min using a shaker equilibrated at room temperature, and subjected to patch clamping on a machine. The medium of the prepared cells was replaced with extracellular fluid. The intracellular fluid and the extracellular fluid were taken from the fluid pool, and added to the intracellular fluid pool and the cell and test substance pool of the QPlate chip, respectively. The voltage stimulation of the whole-cell hERG potassium current was recorded by the whole-cell patch clamp, and the experimental data was collected and stored by Qpatch. The test compound was 3-fold diluted starting from 30 μM to obtain 6 concentration points, each for two administrations over a period of at least 5 min. The current detected in compound-free extracellular fluid for each cell served as its own control group, and the detection was repeated at least twice independently using two cells per concentration. All electrophysiological experiments were performed at […].
For data analysis, the current after the action of each drug concentration and the current of the blank control were standardize
and then the inhibition rate corresponding to each drug concentration was calculated
The mean and standard error were calculated for each concentration, and the half maximal inhibitory concentration of each compound was calculated:
The dose-dependent effect was subjected to non-linear fitting using the above equation, where Y represents the inhibition rate, C represents the concentration of the test substance, IC50 is the half maximal inhibitory concentration, and HillSlope represents the Hill coefficient. Curve fitting and calculation of IC50 were performed using the Graphpad software.

[1] = tested on: Human colon cancer HT-29 cells; assay: Pharmacodynamic experiment in mice, subcutaneous HT-29 tumor; format: in vivo; conditions: 20 mpk BID intragastric, after 16 days of administration, HT-29 subcutaneous tumor in mice
Experimental: Human colon cancer HT-29 cells were cultured in monolayer in vitro under the following conditions: DMEM medium containing 10% fetal bovine serum and 1% penicillin and streptomycin, at 37° C. with 5% CO2. The cells were digested with trypsin three times a week for passaging. When the saturation degree of the cells was 80%-90%, the cells were collected, counted, and inoculated, 0.1 mL (1×10^6 cells) of HT-29 cells were subcutaneously inoculated on the tight back of each mouse. On day 11 after inoculation of the cells, the mean tumor volume reached 325 mm^3. The mice were randomly grouped for administration (the animals were divided into an administration group and a control group, with 6 animals in each group). The day of grouping was defined as d0, and intragastric administration was started on d1. The administration was performed twice daily at an administration volume of 10 mL/kg. Vehicle control was adminstered to the control group. The tumor volume was measured 2-3 times per week, and meanwhile, the mice were weighed and the data were recorded; daily observations were made to record the body surface signs of the mice. After the experiment was completed, the tumors were removed, weighed, and photographed for recording.
Calculation formula for tumor volume: […]

hERG potassium channel, sequence (Q12809 whole entry): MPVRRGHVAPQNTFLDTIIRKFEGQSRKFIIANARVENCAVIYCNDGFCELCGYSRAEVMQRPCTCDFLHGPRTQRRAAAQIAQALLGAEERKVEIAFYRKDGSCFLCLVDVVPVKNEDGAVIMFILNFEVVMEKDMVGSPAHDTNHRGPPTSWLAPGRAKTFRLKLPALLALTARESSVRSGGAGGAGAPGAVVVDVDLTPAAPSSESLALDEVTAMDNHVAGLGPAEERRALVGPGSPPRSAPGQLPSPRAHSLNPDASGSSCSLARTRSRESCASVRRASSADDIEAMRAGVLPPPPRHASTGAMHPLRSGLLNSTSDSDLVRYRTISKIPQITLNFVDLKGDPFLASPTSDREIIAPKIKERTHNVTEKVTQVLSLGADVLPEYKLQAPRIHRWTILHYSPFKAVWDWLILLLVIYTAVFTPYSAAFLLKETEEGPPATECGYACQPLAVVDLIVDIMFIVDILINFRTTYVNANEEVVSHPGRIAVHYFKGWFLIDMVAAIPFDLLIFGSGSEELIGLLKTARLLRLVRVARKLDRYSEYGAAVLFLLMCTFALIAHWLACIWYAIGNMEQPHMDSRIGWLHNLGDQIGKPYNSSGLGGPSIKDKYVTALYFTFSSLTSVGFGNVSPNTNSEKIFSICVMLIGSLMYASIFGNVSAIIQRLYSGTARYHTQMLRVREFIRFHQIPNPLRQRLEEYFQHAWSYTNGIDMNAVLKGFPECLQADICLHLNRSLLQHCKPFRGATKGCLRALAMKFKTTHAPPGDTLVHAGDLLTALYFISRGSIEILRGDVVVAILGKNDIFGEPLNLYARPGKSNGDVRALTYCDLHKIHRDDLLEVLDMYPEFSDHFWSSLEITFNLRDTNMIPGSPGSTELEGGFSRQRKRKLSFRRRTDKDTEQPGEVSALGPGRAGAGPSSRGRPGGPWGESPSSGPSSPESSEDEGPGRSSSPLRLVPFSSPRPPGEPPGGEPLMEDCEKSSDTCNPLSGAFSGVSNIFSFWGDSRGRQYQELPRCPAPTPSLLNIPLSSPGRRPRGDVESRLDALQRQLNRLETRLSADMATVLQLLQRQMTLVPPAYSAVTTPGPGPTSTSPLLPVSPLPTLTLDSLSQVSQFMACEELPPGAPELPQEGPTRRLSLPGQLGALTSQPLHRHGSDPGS

Row | Structure (SMILES) | IC50 (hERG potassium channel) [µM] | TGI [1] [%]
1 | O=C(Nc1cc2ccccc2c(N2CCC(F)(F)CC2)n1)c1ccc(NS(=O)(=O)CCO)cc1N1CCC2(CC1)CC2 [Compound 6] | > 30 | 
2 | CS(=O)(=O)Nc1ccc(C(=O)Nc2cn3ccnc3c(N3CCC(F)(F)CC3)n2)c(N2CC3CCC(C3)C2)c1 [Compound 19] | > 30 | 111.82
3 | O=C(Nc1cn2ccnc2c(N2CCC(F)(F)CC2)n1)c1ccc(NS(=O)(=O)CCO)cc1N1CCC2(CC1)CC2 [Compound 8] | > 30 | 
4 | CS(=O)(=O)Nc1ccc(C(=O)Nc2cc3cc[nH]c3c(N3CCC(F)(F)CC3)n2)c(N2CCC3(CC2)CC3)c1 [Compound 47] |  | 108.84
5 | O=C(Nc1cn2c(F)cnc2c(N2CCC(F)(F)CC2)n1)c1ccc(NS(=O)(=O)CCO)cc1N1CCC2(CC1)CC2 [Compound 34] |  | 105.10
6 | O=C(Nc1cc2cccnc2c(N2CCC(F)(F)CC2)n1)c1ccc(NS(=O)(=O)CCO)cc1N1CCC2(CC1)CC2 [Compound 21] | > 30 | 
